Measured values as given in patent US20240199692A1 (priority 2019, published 2024).
*1 amine or outer side, *2 acyl side, *3 side chain or, on linkers, in order; H or OH if unused. Where a SMILES comes first, the peptide text is derived from it. [ ]: non-standard residue; d: D form. The star is where a group is joined. Phenylsulfonyl(4-anisamido) = COc1ccc(C(=O)Nc2ccc(S(=O)(=O)*)cc2)cc1; X14 = CN(C)C(=O)c1ccc(C(=O)Nc2ccc(S(=O)(=O)*)cc2)cc1; X8 = CCCOc1ccc(C(=O)Nc2ccc(S(=O)(=O)*)cc2)cc1; X2 = CCOc1ccc(C(=O)Nc2ccc(S(=O)(=O)*)cc2)cc1; d(γGlu) = O=C(O)[C@@H](CCC(=O)[*:2])N[*:1]; d(βAsp) = O=C(O)[C@@H](CC(=O)[*:2])N[*:1]; X7 = O=S(=O)(c1ccc(-c2ccc(OCCO)cc2)cc1)*; X5 = O=S(=O)(c1ccc(-c2ccc(CO)cc2)cc1)*; NMeI = CC[C@H](C)[C@H](NC)C(=O)O; NMeE = CN[C@@H](CCC(=O)O)C(=O)O; β3hP = O=C(O)C[C@@H]1CCCN1; Dab = NCC[C@H](N)C(=O)O; Dap = NC[C@H](N)C(=O)O

Biological target: T1, MMP2 (Homo sapiens, UniProt P08253)
T1 sequence (P08253 110-660): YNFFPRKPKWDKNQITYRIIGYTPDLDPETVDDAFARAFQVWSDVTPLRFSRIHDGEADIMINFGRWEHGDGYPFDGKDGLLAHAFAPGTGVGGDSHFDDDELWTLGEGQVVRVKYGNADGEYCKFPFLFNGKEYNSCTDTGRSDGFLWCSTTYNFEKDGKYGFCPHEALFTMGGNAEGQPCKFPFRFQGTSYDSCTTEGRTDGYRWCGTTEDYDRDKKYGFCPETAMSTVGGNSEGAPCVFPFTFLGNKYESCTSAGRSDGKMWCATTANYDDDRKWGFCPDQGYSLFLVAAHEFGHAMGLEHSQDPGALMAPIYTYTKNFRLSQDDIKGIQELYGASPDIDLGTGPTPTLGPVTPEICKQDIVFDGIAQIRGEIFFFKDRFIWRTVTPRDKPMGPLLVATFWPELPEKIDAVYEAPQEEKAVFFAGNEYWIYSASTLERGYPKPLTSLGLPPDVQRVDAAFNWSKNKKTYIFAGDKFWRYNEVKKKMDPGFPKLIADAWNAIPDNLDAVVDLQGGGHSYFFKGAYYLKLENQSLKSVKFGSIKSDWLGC
Test: Inhibitory effects on human MMP2 (Method 1), enzyme assay with MOCAc-Pro-Leu-Gly-Leu-A2pr(Dnp)-Ala-Arg-NH2 substrate, 96-well
Type: biochemical
Settings: Test Example No. 1-1 (Method 1, 96-well microplate); read-out: Human MMP2, IC50
Procedure: In a reaction solution [50 mmol/L Tris-HCl (pH 7.5), 150 mmol/L NaCl, 10 mmol/L CaCl2, 0.05% Brij L23], 100 μg/mL human recombinant MMP2 enzyme and 1 mmol/L 4-Aminophenylmercuric acetate were mixed together, and reacted at 37° C. for 60 minutes. The human MMP2 activated through the reaction was poured into a 96-well microplate to reach a final concentration of 0.7 or 7 ng/mL.

Row | Compound | IC50 [nM]
1 | CC(C)C[C@H](NC(=O)[C@H](CN)NC(=O)C[C@@H](NS(=O)(=O)c1ccc(-c2ccc(OCCO)cc2)cc1)C(=O)O)C(=O)N(C)[C@@H](CCC(=O)O)C(=O)N1CCC[C@H]1CC(N)=O [Compound 638] ({X7-d(βAsp)}-[Dap]L[NMeE][β3hP]-NH2; N-terminus assumed) | 0.14
2 | CC(C)C[C@H](NC(=O)[C@H](CCN)NC(=O)C[C@@H](NS(=O)(=O)c1ccc(-c2ccc(OCCO)cc2)cc1)C(=O)O)C(=O)N(C)[C@@H](CCC(=O)O)C(=O)N1CCC[C@H]1CC(N)=O [Compound 640] ({X7-d(βAsp)}-[Dab]L[NMeE][β3hP]-NH2; N-terminus assumed) | 0.38
3 | CC[C@H](C)[C@@H](C(=O)N1CCC[C@H]1CC(N)=O)N(C)C(=O)[C@H](CC(C)C)NC(=O)[C@H](CCN)NC(=O)C[C@@H](NS(=O)(=O)c1ccc(-c2ccc(CO)cc2)cc1)C(=O)O [Compound 642] ({X5-d(βAsp)}-[Dab]L[NMeI][β3hP]-NH2; N-terminus assumed) | 1.6
4 | CC(C)C[C@H](NC(=O)[C@H](CN)NC(=O)C[C@@H](NS(=O)(=O)c1ccc(NC(=O)c2ccc(C(=O)N(C)C)cc2)cc1)C(=O)O)C(=O)N(C)[C@@H](CCC(=O)O)C(=O)N1CCC[C@H]1CC(N)=O [Compound 679] ({X14-d(βAsp)}-[Dap]L[NMeE][β3hP]-NH2; N-terminus assumed) | 1.5
5 | CC[C@H](C)[C@@H](C(=O)N1CCC[C@H]1CC(N)=O)N(C)C(=O)[C@H](CC(C)C)NC(=O)[C@H](CN)NC(=O)C[C@@H](NS(=O)(=O)c1ccc(NC(=O)c2ccc(OC)cc2)cc1)C(=O)O [Compound 692, N-[(2S)-3-amino-1-({(2S)-1-[{(2S,3S)-1-[(2S)-2-(2-amino-2-oxoethyl)pyrrolidin-1-yl]-3-methyl-1-oxopentan-2-yl}(methyl)amino]-4-methyl-1-oxopentan-2-yl}amino)-1-oxopropan-2-yl]-N^2-[4-(4-methoxybenzamido)benzene-1-sulfonyl]-D-asparagine] ({Phenylsulfonyl(4-anisamido)-d(βAsp)}-[Dap]L[NMeI][β3hP]-NH2) | 0.068
6 | CC[C@H](C)[C@@H](C(=O)N1CCC[C@H]1CC(N)=O)N(C)C(=O)[C@H](CC(C)C)NC(=O)[C@H](CCN)NC(=O)C[C@@H](NS(=O)(=O)c1ccc(NC(=O)c2ccc(OC)cc2)cc1)C(=O)O [Compound 694] ({Phenylsulfonyl(4-anisamido)-d(βAsp)}-[Dab]L[NMeI][β3hP]-NH2; N-terminus assumed) | 0.094
7 | CC[C@H](C)[C@@H](C(=O)N1CCC[C@H]1CC(N)=O)N(C)C(=O)[C@H](CC(C)C)NC(=O)[C@H](CCN)NC(=O)CC[C@@H](NS(=O)(=O)c1ccc(NC(=O)c2ccc(OC)cc2)cc1)C(=O)O [Compound 695] ({Phenylsulfonyl(4-anisamido)-d(γGlu)}-[Dab]L[NMeI][β3hP]-NH2; N-terminus assumed) | 0.53
8 | CCCOc1ccc(C(=O)Nc2ccc(S(=O)(=O)N[C@H](CCC(=O)N[C@@H](CCN)C(=O)N[C@@H](CC(C)C)C(=O)N(C)[C@H](C(=O)N3CCC[C@H]3CC(N)=O)[C@@H](C)CC)C(=O)O)cc2)cc1 [Compound 696] ({X8-d(γGlu)}-[Dab]L[NMeI][β3hP]-NH2; N-terminus assumed) | 0.22
9 | COc1ccc(C(=O)Nc2ccc(S(=O)(=O)N[C@H](CCC(=O)N[C@@H](CCN)C(=O)N[C@@H](CC(C)C)C(=O)N(C)[C@@H](CCC(=O)O)C(=O)N3CCC[C@H]3CC(N)=O)C(=O)O)cc2)cc1 [Compound 697] ({Phenylsulfonyl(4-anisamido)-d(γGlu)}-[Dab]L[NMeE][β3hP]-NH2; N-terminus assumed) | 0.28
10 | CCOc1ccc(C(=O)Nc2ccc(S(=O)(=O)N[C@H](CCC(=O)N[C@@H](CCN)C(=O)N[C@@H](CC(C)C)C(=O)N(C)[C@H](C(=O)N3CCC[C@H]3CC(N)=O)[C@@H](C)CC)C(=O)O)cc2)cc1 [Compound 698] ({X2-d(γGlu)}-[Dab]L[NMeI][β3hP]-NH2; N-terminus assumed) | 0.31
